Where two headings read alike, the source gives them in different places.
How the values were obtained:
Adenosine A2a receptor = target: T1, Adenosine A2a receptor (Homo sapiens, UniProt P29274); assay: Adenosine receptor TR-FRET binding assay, A2a; conditions: displacement of 100 nM CA200645, CHO cell membranes
T1 construct: expressed in transfected cells; host or cells: CHO cell membranes
Method: (§1) All FRET binding experiments were conducted at room temperature in white 384-well plates, in assay binding buffer containing 1× LabMed (Cisbio, France), 100 μg/mL saponin, 1% DMSO and 0.02% pluronic acid. Binding of the fluorescently labelled Adenosine receptor antagonist XAC (CA200645, FRET acceptor) to terbium-labelled A1, A2a, A2b and A3 adenosine receptors (FRET donors) was detected by time-resolved FRET due to the close proximity of the donor and acceptor in a binding event. To investigate the ability of unlabelled test compounds to bind to Adenosine A1, A2a, A2b and A3 receptors, dose response curves were constructed that determined the ability of a range of concentrations to inhibit the binding of 30 nM CA200645 to the A2b receptor and 100 nM CA200645 to the A1, A2a, and A3 receptor.
(§2) Serial dilution (1:3 dilutions) of test compounds in neat DMSO and transfer of a 400 nL sample of test compound into the assay plate was carried out using the Mosquito (TTP Labtech, UK). The compound samples were incubated for 2 hours at room temperature with a fixed concentration of CA200645 defined for each receptor (see above) and CHO cell membranes containing the human Adenosine A1 (0.5 μg/well), A2a (0.3 μg/well), A2b (1 μg/well) or A3 (1 μg/well) receptor in 40 μL of assay buffer. Total and non-specific binding of CA200645 was determined in the absence and presence of 10 μM XAC, respectively.
(§3) Following 2 hours incubation, the level of CA200645 binding was detected on a Pherastar FSX (BMG Labtech, Germany) using standard TR-FRET settings. The terbium donor was excited with three laser flashes at a wavelength of 337 nm, and donor and acceptor emission was detected at 620 nm and 665 nm wavelengths, respectively. FRET ratios were obtained by multiplying the acceptor/donor ratio value by 10,000. Specific binding was determined by subtracting the non-specific binding FRET ratio from the total binding FRET ratio. Compound IC50 curves were analysed using GraphPad Prism 7.0 (GraphPad, USA) and Ki affinity values were determined from the obtained […] values using the method of Cheng and Prusoff.

Adenosine A2b receptor = target: T2, Adenosine A2b receptor (Homo sapiens, UniProt P29275); assay: Adenosine receptor TR-FRET binding assay, A2b; conditions: Table 9, further testing; displacement of 30 nM CA200645, CHO cell membranes
T2 construct: expressed in transfected cells; host or cells: CHO cell membranes
T2 sequence (P29275 1-332): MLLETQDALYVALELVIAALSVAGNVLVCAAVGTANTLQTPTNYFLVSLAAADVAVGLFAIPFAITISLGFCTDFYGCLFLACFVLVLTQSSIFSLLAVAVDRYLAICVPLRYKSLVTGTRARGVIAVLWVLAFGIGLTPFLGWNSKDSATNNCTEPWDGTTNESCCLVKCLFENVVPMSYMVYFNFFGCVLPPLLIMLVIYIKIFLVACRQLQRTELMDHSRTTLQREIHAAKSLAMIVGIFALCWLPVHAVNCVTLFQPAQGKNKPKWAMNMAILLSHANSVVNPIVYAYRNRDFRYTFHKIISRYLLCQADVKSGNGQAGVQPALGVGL
Method: as §1, §2, §3

Adenosine A3 receptor = target: T3, Adenosine A3 receptor (Homo sapiens, UniProt P0DMS8); assay: Adenosine receptor TR-FRET binding assay, A3
T3 construct: expressed in transfected cells; host or cells: CHO cell membranes
T3 sequence (P0DMS8 1-318): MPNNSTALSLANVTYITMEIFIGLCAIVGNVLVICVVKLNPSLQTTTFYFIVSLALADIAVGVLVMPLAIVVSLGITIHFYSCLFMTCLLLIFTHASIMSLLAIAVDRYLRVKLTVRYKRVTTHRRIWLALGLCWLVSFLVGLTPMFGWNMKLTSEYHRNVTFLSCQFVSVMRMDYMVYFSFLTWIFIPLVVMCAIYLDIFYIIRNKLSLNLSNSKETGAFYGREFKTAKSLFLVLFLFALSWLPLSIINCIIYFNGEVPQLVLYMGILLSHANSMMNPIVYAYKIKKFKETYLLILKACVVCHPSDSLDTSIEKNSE
Method: as §1, §2, §3

Adenosine A1 receptor = target: T4, Adenosine A1 receptor (Homo sapiens, UniProt P30542); assay: Adenosine receptor TR-FRET binding assay, A1; conditions: Table 9, further testing; displacement of 100 nM CA200645, CHO cell membranes
T4 construct: expressed in transfected cells; host or cells: CHO cell membranes
T4 sequence (P30542 1-326): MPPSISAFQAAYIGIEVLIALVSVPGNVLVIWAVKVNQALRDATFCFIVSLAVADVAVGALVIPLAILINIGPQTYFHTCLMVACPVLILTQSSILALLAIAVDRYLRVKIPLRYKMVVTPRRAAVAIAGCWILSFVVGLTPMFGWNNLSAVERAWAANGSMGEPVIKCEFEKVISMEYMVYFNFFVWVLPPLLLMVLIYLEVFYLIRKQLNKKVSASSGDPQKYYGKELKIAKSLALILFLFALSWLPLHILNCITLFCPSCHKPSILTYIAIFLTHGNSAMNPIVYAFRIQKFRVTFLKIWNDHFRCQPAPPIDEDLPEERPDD
Method: as §1, §2, §3

[1] = Table 9, further testing, displacement of 100 nM CA200645, CHO cell membranes, read-out: A3 Ki

T1 sequence (P29274 whole entry): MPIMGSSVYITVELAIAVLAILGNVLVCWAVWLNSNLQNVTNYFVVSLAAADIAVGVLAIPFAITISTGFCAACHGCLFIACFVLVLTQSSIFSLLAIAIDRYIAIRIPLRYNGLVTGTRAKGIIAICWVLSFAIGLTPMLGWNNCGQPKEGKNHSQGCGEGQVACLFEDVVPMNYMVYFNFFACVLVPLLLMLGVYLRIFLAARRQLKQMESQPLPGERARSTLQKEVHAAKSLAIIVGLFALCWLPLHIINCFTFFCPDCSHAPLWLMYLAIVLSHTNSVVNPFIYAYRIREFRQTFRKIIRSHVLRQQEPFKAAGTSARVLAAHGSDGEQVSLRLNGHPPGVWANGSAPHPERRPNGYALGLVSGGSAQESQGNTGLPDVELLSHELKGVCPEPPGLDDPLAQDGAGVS

Row | SMILES | Ki (Adenosine A2a receptor; Table 8, Cheng and Prusoff) [nM] | Ki (Adenosine A2a receptor; Table 9, further testing) [nM] | Ki (Adenosine A2b receptor) [nM] | Ki (Adenosine A3 receptor; [1]) [nM] | Ki (Adenosine A1 receptor) [nM] | Ki (Adenosine A3 receptor) [nM]
1 | CCOC(=O)c1nnc(-c2ccco2)nc1N [Example 1, Ethyl 5-amino-3-(2-furyl)-1,2,4-triazine-6-carboxylate] | 60 | 61 | 382 | 101 | 314 | 
2 | Cc1ccc(-c2ncc(C(=O)NCc3ncccc3C)c(N)n2)o1 [Example 3.1, 4-Amino-2-(5-methyl-2-furyl)-N-[(3-methyl-2-pyridyl)methyl]pyrimidine-5-carboxamide] |  | 424 | 5540 | 818 | 995 | 
3 | Nc1nc(-c2ccco2)ncc1C(=O)NCc1ccc(C(F)(F)F)cc1 [Example 5.28, 4-amino-2-(2-furyl)-N-[[4-(trifluoromethyl)phenyl]methyl]pyrimidine-5-carboxamide] | 298 | 298 |  | 5780 | 5660 | 
4 | Nc1nc(-c2ccco2)ncc1C(=O)NCc1cccc(C(F)(F)F)c1 [Example 5.29, 4-Amino-2-(2-furyl)-N-[[3-(trifluoromethyl)phenyl]methyl]pyrimidine-5-carboxamide] | 52 | 52 | 5470 | 2460 | 1700 | 
5 | Nc1nc(-c2ccco2)ncc1C(=O)NCc1ncccc1C(F)(F)F [Example 5.30, 4-Amino-2-(2-furyl)-N-[[3-(trifluoromethyl)-2-pyridyl]methyl]pyrimidine-5-carboxamide] |  | 2.7 | 2350 |  | 4750 | 2300
6 | Nc1nc(-c2ccco2)ncc1C(=O)NCc1cc(F)cc(C(F)(F)F)c1 [Example 5.44, 4-Amino-N-[[3-fluoro-5-(trifluoromethyl)phenyl]methyl]-2-(2-furyl)pyrimidine-5-carboxamide] |  | 78 |  | 1090 | 364 | 
7 | Cc1cccnc1C(C)NC(=O)c1cnc(-c2ccco2)nc1N (stereo not shown) [Example 5.57, 4-Amino-2-(2-furyl)-N-[1-(3-methyl-2-pyridyl)ethyl]pyrimidine-5-carboxamide] |  | 40 |  | 1230 | 4480 | 
8 | Nc1nc(-c2ccco2)ncc1C(=O)NCc1nccc(C(F)(F)F)n1 [Example 5.59, 4-Amino-2-(2-furyl)-N-[[4-(trifluoromethyl)pyrimidin-2-yl]methyl]pyrimidine-5-carboxamide] |  | 236 |  | 4610 |  | 
9 | Nc1nc(-c2ccco2)ncc1C(=O)N[C@H](CO)c1ccccc1 [Example 5.61, 4-Amino-2-(2-furyl)-N-[(1S)-2-hydroxy-1-phenyl-ethyl]pyrimidine-5-carboxamide] |  | 54 |  | 1470 | 4080 | 
10 | Cc1cccnc1CNC(=O)c1cnc(-c2ccc(F)cc2)nc1N [Example 14, 4-Amino-2-(4-fluorophenyl)-N-[(3-methyl-2-pyridyl)methyl]pyrimidine-5-carboxamide] | 744 | 744 |  | 202 | 740 | 
11 | Cc1cccnc1CNC(=O)c1c(N)nc(-c2ccco2)nc1-n1cccn1 [Example 19, 4-Amino-2-(2-furyl)-N-[(3-methyl-2-pyridyl)methyl]-6-pyrazol-1-yl-pyrimidine-5-carboxamide] | 105 | 105 |  | 675 | 871 | 
12 | Cc1cccnc1CNC(=O)c1c(N)nc(-c2ccco2)nc1OCCN1CCNCC1 [Example 23.2, 4-Amino-2-(2-furyl)-N-[(3-methyl-2-pyridyl)methyl]-6-(2-piperazin-1-ylethoxy)pyrimidine-5-carboxamide] |  | 287 |  | 6700 | 7550 | 

Second part, led by results:

Row | Ki (Adenosine A2a receptor; Table 8, Cheng and Prusoff) [nM] | Ki (Adenosine A2a receptor; Table 9, further testing) [nM] | Ki (Adenosine A2b receptor) [nM] | Ki (Adenosine A3 receptor; [1]) [nM] | Ki (Adenosine A1 receptor) [nM] | SMILES | Ki (Adenosine A3 receptor) [nM]
13 | 20 | 20 | 3970 | 2680 | 3550 | Nc1nc(-c2ccco2)ncc1C(=O)NCc1cccc(F)c1 [Example 5.13, 4-Amino-N-[(3-fluorophenyl)methyl]-2-(2-furyl)pyrimidine-5-carboxamide] | 
14 | 33 | 33 | 6630 | 1820 |  | Nc1nc(-c2ccco2)ncc1C(=O)NCc1ccc(F)cc1 [Example 5.14, 4-Amino-N-[(4-fluorophenyl)methyl]-2-(2-furyl)pyrimidine-5-carboxamide] | 
15 | 5.1 | 5.1 | 1210 | 2170 | 3990 | Nc1nc(-c2ccco2)ncc1C(=O)NCc1ccccc1Cl [Example 5.15, 4-Amino-N-[(2-chlorophenyl)methyl]-2-(2-furyl)pyrimidine-5-carboxamide] | 
16 | 24 | 24 |  | 3050 | 1890 | Nc1nc(-c2ccco2)ncc1C(=O)NCc1cc(F)cc(F)c1 [Example 5.17, 4-Amino-N-[(3,5-difluorophenyl)methyl]-2-(2-furyl)pyrimidine-5-carboxamide] | 
17 | 24 | 24 | 4690 | 6030 | 4860 | CCn1ccnc1CNC(=O)c1cnc(-c2ccco2)nc1N [Example 5.26, 4-Amino-N-[(1-ethylimidazol-2-yl)methyl]-2-(2-furyl)pyrimidine-5-carboxamide] | 
18 |  | 3.3 | 437 | 1410 | 1890 | Cc1cccc(CNC(=O)c2cnc(-c3ccco3)nc2N)n1 [Example 5.32, 4-Amino-2-(2-furyl)-N-[(6-methyl-2-pyridyl)methyl]pyrimidine-5-carboxamide] | 
19 |  | 10 | 1410 | 1910 | 1040 | Cc1cccc(CNC(=O)c2cnc(-c3ccco3)nc2N)c1 [Example 5.34, 4-Amino-2-(2-furyl)-N-(m-tolylmethyl) pyrimidine-5-carboxamide] | 
20 |  | 12 | 1330 | 2800 | 2620 | Nc1nc(-c2ccco2)ncc1C(=O)NCc1ccccc1C(F)F [Example 5.35, 4-Amino-N-[[2-(difluoromethyl)phenyl]methyl]-2-(2-furyl)pyrimidine-5-carboxamide] | 
21 |  | 1.08 |  | 611 | 22 | CC(C)n1ncnc1CNC(=O)c1c(N)nc(-c2cccc(C#N)c2)nc1OCCF [Example 24.4, 4-Amino-2-(3-cyanophenyl)-6-(2-fluoroethoxy)-N-[(2-isopropyl-1,2,4-triazol-3-yl)methyl]pyrimidine-5-carboxamide] | 
22 |  | 0.1 |  | 28.5 | 3.8 | Cc1cccnc1CNC(=O)c1c(N)nc(-c2cccc(C#N)c2)nc1OCCF [Example 24.8, 4-Amino-2-(3-cyanophenyl)-6-(2-fluoroethoxy)-N-[(3-methyl-2-pyridyl)methyl]pyrimidine-5-carboxamide] | 

From US20200339548A1, “PYRIMIDINE DERIVATIVES AND THEIR USE FOR THE TREATMENT OF CANCER” (Adorx Therapeutics Limited, priority 2017, published 2020)
